Results on eleven compounds are retold here after publication PMC3072459 (Journal of medicinal chemistry, 2011).

One data set concerns the target rat nNOS (Rattus norvegicus, UniProt P29476). The data set is described as follows: NOS inhibition, hemoglobin. It counts as biochemical.
The target of data set [1] is nNOS in 293T cells overexpressing nNOS (293T/nNOS cells) (Rattus norvegicus, UniProt P29476). As to the kind of experiment: Cell-based nNOS inhibition assay. Conditions: for activity in the cell-based assay (in words): A23187 (5 μM), 8 h.
For data set [2] the following is noted: rodent in vivo studies; cited from earlier work.

For the compound `Cc1cc(C)nc(NCc2ccc3cc(CNc4cc(C)cc(C)n4)ccc3c2)c1` [3a, N,N'-(Naphthalene-2,6-diylbis(methylene))bis(4,6-dimethylpyridin-2-amine)], the “binding / inhibition of nNOS (in words)” value at rat nNOS is “poor binding”.

In the case of `Cc1cc(N)nc(CCc2ccc3cc(CCc4cc(C)cc(N)n4)ccc3c2)c1` [3b, 6,6'-(2,2'-(Naphthalene-2,6-diyl)bis(ethane-2,1-diyl))bis(4-methylpyridin-2-amine)], on rat nNOS, the “binding / inhibition of nNOS (in words)” value was “sub-micromolar binding affinity”.

In the case of `Cc1cc(N)nc(CCc2ccc3ccc(CCc4cc(C)cc(N)n4)cc3c2)c1` [3c, 6,6'-(2,2'-(Naphthalene-2,7-diyl)bis(ethane-2,1-diyl))bis(4-methylpyridin-2-amine)], on rat nNOS, the “binding / inhibition of nNOS (in words)” value is given as “sub-micromolar binding affinity”.

As to `Cc1cc(N)nc(CCc2ccc3ccc(CCc4cc(C)nc(N)c4)cc3c2)c1` [3d, 4-(2-(7-(2-(6-Amino-4-methylpyridin-2-yl)ethyl)naphthalen-2-yl)ethyl)-6-methylpyridin-2-amine], the “binding / inhibition of nNOS (in words)” value at rat nNOS was “poor inhibitor”.

Take `Cc1cc(N)nc(CCc2cccc(CCc3cc(C)cc(N)n3)c2)c1` [3g, 6,6'-(2,2'-(1,3-Phenylene)bis(ethane-2,1-diyl))bis(4-methylpyridin-2-amine)]: the “activity in the cell-based assay (in words)” value in data set [1] is on record as “almost no activity”.

Turning to `Cc1cc(N)nc(CCc2cccc(CCc3cc(C)nc(N)c3)c2)c1` [3h, 4-(3-(2-(6-Amino-4-methylpyridin-2-yl)ethyl)phenethyl)-6-methylpyridin-2-amine], the “activity in the cell-based assay (in words)” value in data set [1] is “almost no activity”.

On to `Cc1cc(CCc2cccc(CCc3cc(C)nc(N)c3)c2)cc(N)n1` [3i, 4,4'-(2,2'-(1,3-Phenylene)bis(ethane-2,1-diyl))bis(6-methylpyridin-2-amine)], for which the “binding / inhibition of nNOS (in words)” value at rat nNOS is given as “binds rather poorly”.

As for `Cc1cc(N)nc(CCc2cncc(CCc3cc(C)cc(N)n3)c2)c1` [3j, 6,6'-(2,2'-(Pyridine-3,5-diyl)bis(ethane-2,1-diyl))bis(4-methylpyridin-2-amine)], in data set [1], the “membrane penetration ability (in words, from cell-based assay)” value is recorded as “good membrane penetration ability”.

Consider `Cc1cc(N)nc(CCc2cncc(CCc3cc(C)nc(N)c3)c2)c1` [3k, 4-(2-(5-(2-(6-Amino-4-methylpyridin-2-yl)ethyl)pyridin-3-yl)ethyl)-6-methylpyridin-2-amine], for which the “membrane penetration ability (in words, from cell-based assay)” value in data set [1] was “good membrane penetration ability”.

Consider `Cc1cc(N)nc(C[C@H]2CNC[C@H]2NCCNCCc2cccc(F)c2)c1` [compound 1], for which the “ability to penetrate the blood brain barrier (BBB)” value in data set [2] is on record as “poor ability to penetrate the blood brain barrier”.

Take `Cc1cc(N)nc(C[C@@H]2CNC[C@@H]2NCCNCCc2cccc(F)c2)c1` [compound 2]: in data set [2], the “ability to penetrate the blood brain barrier (BBB)” value is “poor ability to penetrate the blood brain barrier”.
